The structures appear in SMILES notation.

This experiment deals with T1, acetylcholinesterase from electric eel (AChE, E.C. 3.1.1.7, Type V-S) (Electrophorus electricus, UniProt O42275).
T1 construct: purchased Sigma-Aldrich (Steinheim, Germany) Type V-S (catalogue number not given)
T1 sequence (O42275 24-633): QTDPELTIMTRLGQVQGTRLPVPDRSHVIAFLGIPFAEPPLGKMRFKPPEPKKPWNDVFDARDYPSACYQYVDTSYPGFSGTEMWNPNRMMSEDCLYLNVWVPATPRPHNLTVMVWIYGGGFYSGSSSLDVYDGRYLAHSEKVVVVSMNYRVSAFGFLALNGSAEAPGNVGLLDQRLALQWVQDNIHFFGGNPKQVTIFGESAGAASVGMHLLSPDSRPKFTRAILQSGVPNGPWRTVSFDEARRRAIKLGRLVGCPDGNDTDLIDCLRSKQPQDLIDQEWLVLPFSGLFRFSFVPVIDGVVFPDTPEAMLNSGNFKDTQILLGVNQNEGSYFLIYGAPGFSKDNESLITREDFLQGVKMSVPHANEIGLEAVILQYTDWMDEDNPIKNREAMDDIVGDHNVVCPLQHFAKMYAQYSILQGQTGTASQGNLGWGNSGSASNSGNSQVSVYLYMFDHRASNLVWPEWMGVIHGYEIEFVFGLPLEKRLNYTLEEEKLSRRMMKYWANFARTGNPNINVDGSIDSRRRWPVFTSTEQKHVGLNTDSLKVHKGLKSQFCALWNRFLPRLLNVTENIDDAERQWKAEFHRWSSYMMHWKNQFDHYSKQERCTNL
The experiment is described as follows: biochemical. To be noted: Ellman test; IC50 ± SEM; 15 min preincubation at 25°C; pH 8.0; acetylthiocholine iodide substrate; triplicate; read-out: IC50 of in vitro acetylcholinesterase assay. The method, then: Lyophilized powder of acetylcholinesterase from electric eel source (AChE, E.C. 3.1.1.7, Type V-S, 1000 unit) was purchased from Sigma-Aldrich (Steinheim, Germany). 5,5’-Dithiobis-(2-nitrobenzoic acid), potassium dihydrogen phosphate, dipotassium hydrogen phosphate, potassium hydroxide, sodium hydrogen carbonate, and acetylthiocholine iodide were purchased from Fluka (Buchs, Switzerland). […] The Ellman test was carried out for assessment of the anticholinesterase activity of intended compounds in vitro. Prior to use, all solutions were adjusted to 25°C. […] The assay solution consisted of a 0.1 M potassium phosphate buffer pH 8.0, with the addition of 0.01 M 5,50-dithio-bis(2-nitrobenzoic acid), 2.5 unit/mL of enzyme solution (AChE, E.C. 3.1.1.7, Type V-S, lyophilized powder, from electric eel) (Sigma Chemical). […] After rapid and immediate mixing the change of absorption was measured at 412 nm. In order to justify non enzymatic reaction assays were carried out with a blank containing all components except AChE.
The blank reading contained 3 ml buffer, 200 μl water, 100 μl DTNB and 20 μl substrate. The reaction rates were calculated, and the percent inhibition of test compounds was determined. Each concentration was analyzed in triplicate, and IC50 values were determined graphically from inhibition curves (log inhibitor concentration vs percent of inhibition).
As for `O=C1c2ccccc2C(=O)N1CCN1CCN(Cc2ccccc2F)CC1` [Compound 4d, 2-(2-(4-(2-Fluorobenzyl)piperazin-1-yl)ethyl)isoindoline-1,3-dione], the IC50 stood at 23 ± 7 µM.
Turning to `COc1ccc(CN2CCN(CCN3C(=O)c4ccccc4C3=O)CC2)cc1` [Compound 4h, 2-(2-(4-(4-Methoxybenzyl)piperazin-1-yl)ethyl)isoindoline-1,3-dione], the IC50 is 72 ± 9 µM.
As to `O=C1c2ccccc2C(=O)N1CCN1CCN(Cc2ccc([N+](=O)[O-])cc2)CC1` [Compound 4k, 2-(2-(4-(4-Nitrobenzyl)piperazin-1-yl)ethyl)isoindoline-1,3-dione], the IC50 was found to be 40 ± 4 µM.
In the case of `COc1cccc(CN2CCN(CCN3C(=O)c4ccccc4C3=O)CC2)c1` [Compound 4g, 2-(2-(4-(3-Methoxybenzyl)piperazin-1-yl)ethyl)isoindoline-1,3-dione], the IC50 came to 5.5 ± 0.7 µM.
For the molecule `O=C1c2ccccc2C(=O)N1CCN1CCN(Cc2ccc(F)cc2)CC1` [Compound 4f, 2-(2-(4-(4-Fluorobenzyl)piperazin-1-yl)ethyl)isoindoline-1,3-dione], the IC50 was determined as 42 ± 8 µM.
As to `O=C1c2ccccc2C(=O)N1CCN1CCN(Cc2cccc(F)c2)CC1` [Compound 4e, 2-(2-(4-(3-Fluorobenzyl)piperazin-1-yl)ethyl)isoindoline-1,3-dione], the 50% inhibitory concentration (IC50) worked out at 74 ± 11 µM.
In the case of `O=C1c2ccccc2C(=O)N1CCN1CCN(Cc2cccc([N+](=O)[O-])c2)CC1` [Compound 4j, 2-(2-(4-(3-Nitrobenzyl)piperazin-1-yl)ethyl)isoindoline-1,3-dione], the IC50 was 59 ± 6 µM.
For `O=C1c2ccccc2C(=O)N1CCN1CCN(Cc2ccccc2)CC1` [Compound 4l, 2-(2-(4-Benzylpiperazin-1-yl)ethyl)isoindoline-1,3-dione], the IC50 was determined as 9 ± 2 µM.
Turning to `O=C1c2ccccc2C(=O)N1CCN1CCN(Cc2cccc(Cl)c2)CC1` [Compound 4b, 2-(2-(4-(3-Chlorobenzyl)piperazin-1-yl)ethyl)isoindoline-1,3-dione], the IC50 is 85 ± 12 µM.
As for `O=C1c2ccccc2C(=O)N1CCN1CCN(Cc2ccc(Cl)cc2)CC1` [Compound 4c, 2-(2-(4-(4-Chlorobenzyl)piperazin-1-yl)ethyl)isoindoline-1,3-dione], the figure is 26 ± 5 µM; as for `O=C1c2ccccc2C(=O)N1CCN1CCN(Cc2ccccc2Cl)CC1` [Compound 4a, 2-(2-(4-(2-Chlorobenzyl)piperazin-1-yl)ethyl)isoindoline-1,3-dione], 0.91 ± 0.045 µM; as for `O=C1c2ccccc2C(=O)N1CCN1CCN(Cc2ccccc2[N+](=O)[O-])CC1` [Compound 4i, 2-(2-(4-(2-Nitrobenzyl)piperazin-1-yl)ethyl)isoindoline-1,3-dione], 36 ± 5 µM.
